Tested on: GA-primed murine splenocytes
Experiment: ANOVA-based pattern identification method
Type: cell-based, mouse
Conditions: UP IN generic ONLY
Source text: We sought to identify probes matching specific patterns of expression across experimental conditions using a technique that referred to as the ANOVA-based Pattern Identification Method.
To carry out the analysis in a general manner, we computed the 6 p-values required to do pairwise comparisons of all 4 conditions for all probes using the ANOVA1 function in MATLAB. We then identified sets of probes matching the desired pattern. In the example above, probes were identified as being only affected by PG if their 6 pairwise comparison pvalues matched the following pattern (pGA-PG<0.05, pPG-reference standard<0.05, pPG-Medium<0.05, pGAMedium>0.05, pGA-reference standard>0.05, preference standard-Medium>0.05).

Substance: glatiramer acetate [GA]
- 4930544L04RIK expression: 5.873
- 4933437N03RIK expression: 6.099
- 5330403O16RIK expression: 5.716
- 5730472N09RIK expression: 7.649
- 5830457O10RIK expression: 9.145
- 5930400G23RIK expression: 5.875
- 6330579M01RIK expression: 5.814
- 6430709H04RIK expression: 5.642
- 6720407G21RIK expression: 5.543
- 8030455F02RIK expression: 5.766
- 9030624J02RIK expression: 9.517
- 9130011J15RIK expression: 8.444
- 9330104G04RIK expression: 5.71
- 9330158H04RIK expression: 5.699
- 9330183F02RIK expression: 5.986
- 9430003J03RIK expression: 6.25
- 9430078K10RIK expression: 6.125
- 9430088N01RIK expression: 6.673
- 11110020P15RIK expression: 12.88
- A4GALT expression: 5.801
- A230005A19RIK expression: 5.83
- A230084A06RIK expression: 5.804
- ADAL expression: 6.367
- ADAR expression: 8.858
- ADPRHL2 expression: 6.783
- AI844366 expression: 5.793
- AKT2 expression: 5.919
- ALOX15 expression: 5.968
- ARFGAP2 expression: 9.429
- ARVCF expression: 5.727
- ATG3 expression: 5.593
- ATP9B expression: 5.92
- ATP13A1 expression: 9.018
- ATPBD3 expression: 6.569
- B930062B16RIK expression: 6.038
- BC017612 expression: 7.394
- BC031853 expression: 6.952
- BC037704 expression: 7.193
- BC040758 expression: 6.077
- BCKDK expression: 9.485
- BCL2L2 expression: 5.792
- BCL2L12 expression: 6.997
- BLCAP expression: 8.164
- BPHL expression: 5.714
- BTRC expression: 7.946
- BZRPL1 expression: 6.203
- C130040D06RIK expression: 5.711
- C230062L16RIK expression: 6.189
- C230092H20RIK expression: 5.902
- C730048C13RIK expression: 5.941
- C920004C08RIK expression: 11.38
- CAPZB expression: 5.854
- CAR6 expression: 5.68
- CBARA1 expression: 7.517
- CCL2 expression: 5.834
- CD44 expression: 5.953
- CD151 expression: 7.186
- CDC42BPB expression: 7.153
- CDCA1 expression: 5.663
- CEBPE expression: 6.204
- CENTD3 expression: 7.76
- CHGA expression: 5.756
- CHRM2 expression: 5.589
- CLCN1 expression: 5.787
- CLCNKB expression: 5.956
- CLEC4A3 expression: 6.547
- CNGA4 expression: 6.005
- CNTLN expression: 5.647
- COBLL1 expression: 7.08
- COL4A1 expression: 6.209
- COQ6 expression: 9.965
- COQ9 expression: 8.284
- COTL1 expression: 12.24
- CTNNA3 expression: 5.701
- CXCL14 expression: 5.622
- CYGB expression: 6.119
- D0HXS9928E expression: 9.848
- D11WSU47E expression: 7.068
- D130017N08RIK expression: 6.061
- D430013G08RIK expression: 5.658
- DACH1 expression: 5.874
- DBF4 expression: 8.57
- DHDH expression: 7.454
- DNAHC17 expression: 5.838
- DNM3 expression: 5.71
- DUS2L expression: 6.953
- E030016N13RIK expression: 6.199
- E330037I15RIK expression: 6.256
- EFCAB6 expression: 5.61
- EG665903 expression: 5.547
- ENAH expression: 5.919
- EPM2A expression: 5.76
- F830116E18RIK expression: 5.893
- FAHD1 expression: 7.177
- FAM123A expression: 5.862
- FBXL15 expression: 7.284
- FBXL21 expression: 5.656
- FGR expression: 6.972
- FOXE1 expression: 5.777
- FOXP4 expression: 6.284
- FRY expression: 5.74
- GABRG1 expression: 5.55
- GM628 expression: 5.746
- GPAA1 expression: 7.442
- GPR106, LGR8, GPCR expression: 5.814
- GSTK1 expression: 8.386
- GYPA expression: 6.898
- HIST2H2AA1 expression: 6.224
- HMGCL expression: 7.958
- HOXC10 expression: 6.132
- HSD3B2 expression: 5.776
- HTATIP2 expression: 8.787
- INTS7 expression: 9.311
- ISCA1 expression: 9.378
- ITFG2 expression: 8.148
- ITGA2B expression: 6.451
- JPH1 expression: 5.671
- KCNC3 expression: 5.962
- KIF17 expression: 5.897
- KLHDC3 expression: 7.853
- KREMEN2 expression: 6.223
- KRTCAP2 expression: 12.5338
- LOC223628 expression: 5.598
- LOC277049 expression: 5.915
- LOC277236 expression: 5.977
- LOC332300 expression: 6.243
- LOC380636 expression: 5.566
- LOC380723 expression: 5.812
- LOC382813 expression: 5.786
- LOC383439 expression: 5.708
- LOC385989 expression: 5.996
- LOC546088 expression: 5.782
- LOC677528 expression: 9.498
- LOC100045460 expression: 5.645
- LOC100046781 expression: 6.089
- LOC100047194 expression: 5.921
- LOC100047603 expression: 6.184
- LOC100048331 expression: 5.894
- LY96 expression: 7.768
- LYSMD4 expression: 6.812
- MAGEA9 expression: 5.817
- MAGEE2 expression: 5.808
- MAK10 expression: 9.516
- MAPKAPK2 expression: 10.02
- MCPT6 expression: 5.782
- MFSD7A expression: 5.961
- MKNK1 expression: 6.113
- MLANA expression: 5.769
- MOCO5 expression: 6.424
- MS4A7 expression: 6.506
- MTAP1S expression: 8.992
- MTRR expression: 6.473
- NAPA expression: 7.994
- NAPRT1 expression: 6.46
- NCDN expression: 8.408
- NEK4 expression: 5.969
- NFE2L1 expression: 9.753
- NFKB1 expression: 11.57
- NRXN1 expression: 5.957
- NSF expression: 9.95
- OLFR228 expression: 5.655
- OLFR312 expression: 5.726
- OLFR506 expression: 5.636
- OLFR519 expression: 5.669
- OLFR907 expression: 5.644
- OLFR1155 expression: 5.789
- PALLD expression: 5.641
- PALM expression: 6.421
- PCBD2 expression: 10.32
- PCDHAC1 expression: 5.69
- PCOLN3 expression: 7.171
- PDGFB expression: 6.243
- PEF1 expression: 9.307
- PKIA expression: 6.356
- PKIB expression: 5.803
- PLD1 expression: 5.927
- PRDX2 expression: 11.61
- PRPF3 expression: 10.04
- PSCD2 expression: 6.134
- PSG22 expression: 5.693
- PTPRF expression: 5.709
- R74862 expression: 6.215
- RALGPS2 expression: 8.862
- RASAL2 expression: 6.006
- RBPMS expression: 6.068
- REXO1 expression: 6.854
- RHOF expression: 9.948
- RHOT1 expression: 9.777
- RNF40 expression: 6.148
- RNF183 expression: 5.994
- RPUSD3 expression: 6.756
- RSC1A1 expression: 7.697
- SAMD10 expression: 6.984
- SARDH expression: 5.837
- SCAVENGER RECEPTOR expression: 6.161
- SCN1B expression: 5.97
- SFRS2IP expression: 9.233
- SGSM3 expression: 7.217
- SLC7A8 expression: 6.268
- SLC13A5 expression: 5.704
- SLC22A21 expression: 5.775
- SLC26A6 expression: 6.454
- SMG7 expression: 9.655
- SNCA expression: 5.875
- SOX7 expression: 6.163
- SPEN expression: 6.891
- SPIN2 expression: 6.355
- SYMPK expression: 8.402
- SYN1 expression: 5.985
- TAF3 expression: 7.199
- TCEAL5 expression: 5.768
- TCF7L2 expression: 5.717
- TFIP11 expression: 8.095
- TFRC expression: 9.789
- TG737RPW expression: 6.301
- THOC1 expression: 8.813
- TJAP1 expression: 8.168
- TMEM43 expression: 9.133
- TNXB expression: 5.703
- TRABD expression: 8.509
- TRIM2 expression: 5.778
- TRIM15 expression: 5.62
- TRPV4 expression: 5.895
- TRUB1 expression: 8.23
- TSNAXIP1 expression: 5.811
- TTC4 expression: 8.309
- TTC15 expression: 7.191
- UACA expression: 6.1
- UAP1 expression: 8.168
- UBE2A expression: 7.652
- UBE2E2 expression: 6.42
- UGP2 expression: 7.767
- USP10 expression: 6.432
- USP36 expression: 8.5
- V1RC23 expression: 5.692
- VGLL2 expression: 5.853
- WIZ expression: 7.206
- WNK2 expression: 5.719
- XPO5 expression: 7.592
- ZBTB6 expression: 6.029
- ZEB2 expression: 5.602
- ZFP162 expression: 7.652
- ZFP239 expression: 7.228
- ZFP563 expression: 5.809
- ZFP748 expression: 5.815
- ZMAT3 expression: 7.615
- ZMIZ1 expression: 7.099
- control_ILMN_1378661 expression: 5.718
- control_ILMN_1378677 expression: 5.994
- control_ILMN_1378911 expression: 5.7
- AMBRA1 expression (first AMBRA1 line (r790)): 5.749
- CAMK1 expression (first CAMK1 line (r746)): 6.416
- AMBRA1 expression (second AMBRA1 line (r797)): 8.755
- CAMK1 expression (second CAMK1 line (r762)): 5.514

Reference: patent US20140193827A1 (TEVA PHARMACEUTICAL INDUSTRIES, LTD., priority 2013, published 2014)
